In ChEMBL document CHEMBL1152860, “Synthesis and antiproliferative activity of 3-amino-N-phenyl-1H-indazole-1-carboxamides” (2009):
Activity calls are given as the source filed them. No cut-off for these calls is given here.

Legend:
RXF 393 = experiment: Growth inhibition of human […] cells after 48 hrs by SRB assay; assay type: functional; details: RXF 393, 48 h
T47D = experiment: Growth inhibition of human T47D cells after 48 hrs by SRB assay; assay type: functional
SK-OV-3 = experiment: Growth inhibition of human SKOV3 cells after 48 hrs by SRB assay; assay type: functional; details: SK-OV-3, 48 h
Malme-3M = experiment: Growth inhibition of human MALME-3M cells after 48 hrs by SRB assay; assay type: functional
NCI-H322M = experiment: Growth inhibition of human NCI-H322M cells after 48 hrs by SRB assay; assay type: functional
SR [1] = experiment: Growth inhibition of human SR cells after 48 hrs by SRB assay; assay type: functional
NCI-H460 = experiment: Growth inhibition of human NCI-H460 cells after 48 hrs by SRB assay; assay type: functional; details: NCI-H460, 48 h
SF-539 = experiment: Growth inhibition of human SF539 cells after 48 hrs by SRB assay; assay type: functional; details: SF-539, 48 h
CAKI-1 = experiment: Growth inhibition of human Caki1 cells after 48 hrs by SRB assay; assay type: functional; details: CAKI-1, 48 h
SNB-19 = experiment: Growth inhibition of human SNB19 cells after 48 hrs by SRB assay; assay type: functional; details: SNB-19, 48 h
A498 = experiment: Growth inhibition of human A498 cells after 48 hrs by SRB assay; assay type: functional; details: A498, 48 h
MDA-MB-231 = experiment: Growth inhibition of human MDA-MB-231 cells after 48 hrs by SRB assay; assay type: functional; details: MDA-MB-231, 48 h
TK-10 = experiment: Growth inhibition of human TK10 cells after 48 hrs by SRB assay; assay type: functional; details: TK-10, 48 h
HL-60(TB) = experiment: Growth inhibition of human HL-60(TB) cells after 48 hrs by SRB assay; assay type: functional; details: HL-60, 48 h; for CC50: read-out: LC50 (the source's name)
OVCAR-5 = experiment: Growth inhibition of human OVCAR5 cells after 48 hrs by SRB assay; assay type: functional; details: OVCAR-5, 48 h
HOP-62 = experiment: Growth inhibition of human HOP62 cells after 48 hrs by SRB assay; assay type: functional; details: HOP-62, 48 h
PC-3 = experiment: Growth inhibition of human PC3 cells after 48 hrs by SRB assay; assay type: functional; details: PC-3, 48 h
OVCAR-8 = experiment: Growth inhibition of human OVCAR8 cells after 48 hrs by SRB assay; assay type: functional; details: OVCAR-8, 48 h
SW-620 = experiment: Growth inhibition of human SW620 cells after 48 hrs by SRB assay; assay type: functional; details: SW-620, 48 h
OVCAR-4 = experiment: Growth inhibition of human OVCAR4 cells after 48 hrs by SRB assay; assay type: functional; details: OVCAR-4, 48 h
K562 = experiment: Growth inhibition of human K562 cells after 48 hrs by SRB assay; assay type: functional; details: K562, 48 h
U-251 = experiment: Growth inhibition of human U251 cells after 48 hrs by SRB assay; assay type: functional; details: U-251, 48 h
HCT-116 = experiment: Growth inhibition of human HCT116 cells after 48 hrs by SRB assay; assay type: functional; details: HCT-116, 48 h
NCI-H23 = experiment: Growth inhibition of human NCI-H23 cells after 48 hrs by SRB assay; assay type: functional; details: NCI-H23, 48 h
MCF7 = experiment: Growth inhibition of human MCF7 cells after 48 hrs by SRB assay; assay type: functional; details: MCF7, 48 h
SN12C = experiment: Growth inhibition of human SN12C cells after 48 hrs by SRB assay; assay type: functional
SF-295 = experiment: Growth inhibition of human SF295 cells after 48 hrs by SRB assay; assay type: functional; details: SF-295, 48 h
A549 = experiment: Growth inhibition of human A549 cells after 48 hrs by SRB assay; assay type: functional; details: A549, 48 h
SK-MEL-5 = experiment: Growth inhibition of human SK-MEL-5 cells after 48 hrs by SRB assay; assay type: functional; details: SK-MEL-5, 48 h
BT-549 = experiment: Growth inhibition of human BT549 cells after 48 hrs by SRB assay; assay type: functional; details: BT-549, 48 h
SR [2] = experiment: Cell cycle arrest in human SR cells assessed as accumulation at G0/G1 phase at 0.0153 uM after 24 hrs using propidium iodide staining by flow cytometry; assay type: functional, cell-based
MOLT-4 = experiment: Growth inhibition of human MOLT4 cells after 48 hrs by SRB assay; assay type: functional; details: MOLT-4, 48 h; for CC50: read-out: LC50 (the source's name)
OVCAR-3 = experiment: Growth inhibition of human OVCAR-3 cells after 48 hrs by SRB assay; assay type: functional; details: OVCAR-3, 48 h
SK-MEL-28 = experiment: Growth inhibition of human SK-MEL-28 cells after 48 hrs by SRB assay; assay type: functional; details: SK-MEL-28, 48 h
UO-31 = experiment: Growth inhibition of human UO31 cells after 48 hrs by SRB assay; assay type: functional; details: UO-31, 48 h
COLO 205 = experiment: Growth inhibition of human COLO205 cells after 48 hrs by SRB assay; assay type: functional; details: COLO 205, 48 h
NCI/ADR-RES = experiment: Growth inhibition of human NCI/ADR-RES cells after 48 hrs by SRB assay; assay type: functional
RPMI-8226 = experiment: Growth inhibition of human RPMI8226 cells after 48 hrs by SRB assay; assay type: functional; details: RPMI-8226, 48 h; for CC50: read-out: LC50 (the source's name)
UACC-257 = experiment: Growth inhibition of human UACC257 cells after 48 hrs by SRB assay; assay type: functional; details: UACC-257, 48 h
HOP-92 = experiment: Growth inhibition of human HOP92 cells after 48 hrs by SRB assay; assay type: functional; details: HOP-92, 48 h
LOX IMVI = experiment: Growth inhibition of human LOXIMVI cells after 48 hrs by SRB assay; assay type: functional
NCI-H522 = experiment: Growth inhibition of human NCI-H522 cells after 48 hrs by SRB assay; assay type: functional; details: NCI-H522, 48 h
IGROV-1 = experiment: Growth inhibition of human IGROV1 cells after 48 hrs by SRB assay; assay type: functional; details: IGROV-1, 48 h
EKVX = experiment: Growth inhibition of human EKVX cells after 48 hrs by SRB assay; assay type: functional
M14 = experiment: Growth inhibition of human M14 cells after 48 hrs by SRB assay; assay type: functional; details: M14, 48 h
SNB-75 = experiment: Growth inhibition of human SNB75 cells after 48 hrs by SRB assay; assay type: functional; details: SNB-75, 48 h
[3] = read-out: LC50 (the source's name)

Compound `Nc1nn(C(=O)Nc2ccc(Cc3ccccc3)cc2)c2ccccc12` has a GI50 (RXF 393) of 22.2 µM, a GI50 (T47D) of 1.55 µM and a TGI (T47D) of over 100 µM. For the same compound, the CC50 (T47D; [3]) was over 100 µM, the GI50 (SK-OV-3) was 36.9 µM and the GI50 (Malme-3M) was 19.2 µM. For the same compound, the GI50 (NCI-H322M) was 27.8 µM, the GI50 (SR [1]) was 0.0153 µM and the TGI (SR [1]) was 82.2 µM. For the same compound, the CC50 (SR [1]; [3]) was 34.8 µM, the GI50 (NCI-H460) was 0.408 µM and the TGI (NCI-H460) was 13 µM. For the same compound, the CC50 (NCI-H460; [3]) was 84.6 µM, the GI50 (SF-539) was 0.495 µM and the TGI (SF-539) was 5.36 µM. For the same compound, the CC50 (SF-539; [3]) was over 100 µM, the GI50 (CAKI-1) was 21.1 µM and the GI50 (SNB-19) was 22.8 µM. It also gave a GI50 (A498) of 16.7 µM, a GI50 (MDA-MB-231) of 0.847 µM and a TGI (MDA-MB-231) of 43.9 µM. The CC50 (MDA-MB-231; [3]) was over 100 µM, the GI50 (TK-10) was 27.2 µM and the GI50 (HL-60(TB)) was 0.466 µM. The TGI (HL-60(TB)) was 15.2 µM, the CC50 (HL-60(TB)) was 54.9 µM and the GI50 (OVCAR-5) was 31.3 µM. The GI50 (HOP-62) was 13.7 µM, the GI50 (PC-3) was 13.5 µM and the GI50 (OVCAR-8) was 21.9 µM. The GI50 (SW-620) was 3.62 µM, the GI50 (OVCAR-4) was 10.7 µM and the GI50 (K562) was 1.2 µM. The LC50 (concentration killing 50% of cells) (K562) was over 100 µM, the TGI (K562) was 33.8 µM and the GI50 (U-251) was 13.9 µM. The GI50 (HCT-116) was 7.03 µM, the GI50 (NCI-H23) was 16.8 µM and the GI50 (MCF7) was 0.555 µM. The TGI (MCF7) was 8.82 µM, the CC50 (MCF7; [3]) was 89.1 µM and the GI50 (SN12C) was 12.9 µM. For the same compound, the GI50 (SF-295) was 0.53 µM, the TGI (SF-295) was over 100 µM and the CC50 (SF-295; [3]) was over 100 µM. It also gave a GI50 (A549) of 12.9 µM, a GI50 (SK-MEL-5) of 2.22 µM and a TGI (SK-MEL-5) of 8.64 µM. The CC50 (SK-MEL-5; [3]) was 34.3 µM, the GI50 (BT-549) was 13.5 µM and the Activity (SR [2]) was “Active”. For the same compound, the GI50 (MOLT-4) was 0.636 µM, the TGI (MOLT-4) was 20.4 µM and the CC50 (MOLT-4) was over 100 µM. For the same compound, the GI50 (OVCAR-3) was 6.23 µM, the GI50 (SK-MEL-28) was 11.5 µM and the GI50 (UO-31) was 0.347 µM. For the same compound, the TGI (UO-31) was over 100 µM, the CC50 (UO-31; [3]) was over 100 µM and the GI50 (COLO 205) was 13.4 µM. The GI50 (NCI/ADR-RES) was 7.87 µM, the GI50 (RPMI-8226) was 1.86 µM and the TGI (RPMI-8226) was 25.8 µM. It also gave a CC50 (RPMI-8226) of 84 µM, a GI50 (UACC-257) of 10 µM and a GI50 (HOP-92) of 14.2 µM. The GI50 (LOX IMVI) was 0.477 µM, the LC50 (concentration killing 50% of cells) (LOX IMVI) was 61.5 µM and the TGI (LOX IMVI) was 16.1 µM. It also gave a GI50 (NCI-H522) of 2.9 µM, a TGI (NCI-H522) of over 100 µM and a CC50 (NCI-H522; [3]) of over 100 µM. It also gave a GI50 (IGROV-1) of 6.98 µM, a GI50 (EKVX) of 11.2 µM and a GI50 (M14) of 0.772 µM. The TGI (M14) was over 100 µM, the CC50 (M14; [3]) was over 100 µM and the GI50 (SNB-75) was 17 µM.

For `CCCCOc1ccc(NC(=O)n2nc(N)c3ccccc32)cc1`, the GI50 (RXF 393) was 29.6 µM, the GI50 (T47D) was 14.8 µM and the GI50 (SK-OV-3) was 44 µM. For the same compound, the GI50 (Malme-3M) was 14.7 µM, the GI50 (NCI-H322M) was 20.6 µM and the GI50 (SR [1]) was 16 µM. For the same compound, the GI50 (NCI-H460) was 15.7 µM, the GI50 (SF-539) was 17.8 µM and the GI50 (CAKI-1) was 28.3 µM. The GI50 (SNB-19) was 42.7 µM, the GI50 (A498) was 19 µM and the GI50 (MDA-MB-231) was 13.8 µM. The GI50 (TK-10) was 24.2 µM, the GI50 (HL-60(TB)) was 2.23 µM and the TGI (HL-60(TB)) was 30.4 µM. For the same compound, the CC50 (HL-60(TB)) was over 100 µM, the GI50 (OVCAR-5) was 20 µM and the GI50 (HOP-62) was 20.8 µM. It also gave a GI50 (PC-3) of 14.9 µM, a GI50 (OVCAR-8) of 35.9 µM and a GI50 (SW-620) of 18.3 µM. It also gave a GI50 (OVCAR-4) of 30.7 µM, a GI50 (K562) of 15.9 µM and a GI50 (U-251) of 30.5 µM. The GI50 (HCT-116) was 19.9 µM, the GI50 (NCI-H23) was 19.4 µM and the GI50 (MCF7) was 14.5 µM. The GI50 (SN12C) was 23.1 µM, the GI50 (SF-295) was 21.7 µM and the GI50 (A549) was 23.5 µM. The GI50 (SK-MEL-5) was 15.2 µM, the GI50 (BT-549) was 14 µM and the Activity (SR [2]) was “Active”. The GI50 (MOLT-4) was 4.48 µM, the TGI (MOLT-4) was 46.2 µM and the CC50 (MOLT-4) was over 100 µM. It also gave a GI50 (OVCAR-3) of 18.8 µM, a GI50 (SK-MEL-28) of 32.6 µM and a GI50 (UO-31) of 17.5 µM. The GI50 (COLO 205) was 13.9 µM, the GI50 (NCI/ADR-RES) was 23.7 µM and the GI50 (RPMI-8226) was 2.72 µM. The TGI (RPMI-8226) was 30.8 µM, the CC50 (RPMI-8226) was over 100 µM and the GI50 (UACC-257) was 29.2 µM. For the same compound, the GI50 (HOP-92) was 18.6 µM, the GI50 (LOX IMVI) was 12.2 µM and the GI50 (NCI-H522) was 27.4 µM. It also gave a GI50 (IGROV-1) of 35.5 µM, a GI50 (EKVX) of 13.3 µM and a GI50 (M14) of 18.6 µM. The GI50 (SNB-75) was 28.6 µM.
